# In ChEMBL document CHEMBL1201862, “PubChem BioAssay data set” (2004):
#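 48-hour exposure; five concentrations; linearly interpolated endpoints. GI50: concentration for 50% inhibition of growth.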 The source made the active and inactive calls. Rule as the data show it: active = GI50 up to about 1.1 µM and inactive = higher.
# Columns and labels:
# Experiment in all cases: inhibition of tumour cell growth, NCI panel, 48 h
# KM-20L2 = tested on: KM-20L2
# XF498 = tested on: XF498
# DMS-114 = tested on: DMS-114
# RXF 631 = tested on: RXF 631
# M19-MEL = tested on: M19-MEL
# HOP-18 = tested on: HOP-18
# SNB-78 = tested on: SNB-78
# DMS-273 = tested on: DMS-273
# DLD-1 = tested on: DLD-1
SMILES,GI50 (KM-20L2),GI50 (XF498),GI50 (DMS-114),GI50 (RXF 631),GI50 (M19-MEL),GI50 (HOP-18),GI50 (SNB-78),GI50 (DMS-273),GI50 (DLD-1)
C/C(CCn1[nH]c(=O)ccc1=O)=N\Nc1ccc([N+](=O)[O-])cc1[N+](=O)[O-],33.7 µM (inactive),> 100 µM (inactive),81.8 µM (inactive),> 100 µM (inactive),> 100 µM (inactive),> 100 µM (inactive),> 100 µM (inactive),25.4 µM (inactive),> 100 µM (inactive)
O=C1c2ccc3c4ccccc4n(-c4ccccc4)c3c2C(=O)N1c1ccc(Cl)cc1,> 100 µM (inactive),–,> 100 µM (inactive),> 100 µM (inactive),> 100 µM (inactive),–,> 100 µM (inactive),> 100 µM (inactive),> 100 µM (inactive)
COC(=O)c1cc2c(nc1C)-c1ccccc1OS2(=O)=O,> 100 µM (inactive),56.6 µM (inactive),> 100 µM (inactive),> 100 µM (inactive),> 100 µM (inactive),–,82.8 µM (inactive),> 100 µM (inactive),> 100 µM (inactive)
CSc1nc2c(c(O)c(C)c(=O)n2C2OC(COC(C)=O)C(OC(C)=O)C(OC(C)=O)C2OC(C)=O)c(=O)n1C (stereo not given),> 100 µM (inactive),> 100 µM (inactive),> 100 µM (inactive),> 100 µM (inactive),–,> 100 µM (inactive),> 100 µM (inactive),> 100 µM (inactive),> 100 µM (inactive)
N=C1OC(c2cccc(Cl)c2)C(NNS(=O)(=O)c2ccccc2)=C1O (stereo not given),39.4 µM (inactive),–,17.9 µM (inactive),–,24 µM (inactive),> 100 µM (inactive),27.4 µM (inactive),32.4 µM (inactive),15 µM (inactive)
O=C1c2ccccc2C(=O)c2sc(Nc3ccc(Cl)c(Cl)c3)nc21,19.5 µM (inactive),2.54 µM (inactive),1.67 µM (inactive),7.98 µM (inactive),1.12 µM (inactive),5.06 µM (inactive),2.52 µM (inactive),5.3 µM (inactive),2.15 µM (inactive)
CN1CC(=O)N(C)c2[nH]cnc2C1=O,–,80.9 µM (inactive),> 100 µM (inactive),> 100 µM (inactive),> 100 µM (inactive),> 100 µM (inactive),> 100 µM (inactive),> 100 µM (inactive),> 100 µM (inactive)
Cc1ccc(NC(=O)C2C3C=CC(O3)C2C(=O)O)cc1 (stereo not given),> 100 µM (inactive),71.9 µM (inactive),66.8 µM (inactive),–,> 100 µM (inactive),> 100 µM (inactive),> 100 µM (inactive),> 100 µM (inactive),> 100 µM (inactive)
CC1(C)C(c2ccccc2)C12CCC1(C2=O)C(c2ccccc2)C1(C)C (stereo not given),20.3 µM (inactive),18.7 µM (inactive),17.9 µM (inactive),–,24.6 µM (inactive),–,24.6 µM (inactive),22.1 µM (inactive),–
O=C1c2cccc3cc([N+](=O)[O-])cc(c23)C(=O)N1NC1=NCCN1,> 100 µM (inactive),> 100 µM (inactive),> 100 µM (inactive),> 100 µM (inactive),> 100 µM (inactive),> 100 µM (inactive),> 100 µM (inactive),> 100 µM (inactive),> 100 µM (inactive)
CCCCSN1C(=O)c2ccccc2C1=S,–,> 100 µM (inactive),45.5 µM (inactive),> 100 µM (inactive),56.2 µM (inactive),–,49.3 µM (inactive),45.3 µM (inactive),44.8 µM (inactive)
CN(C)c1ccc(Cc2cc(C(C)(C)C)cc(C(C)(C)C)c2O)cc1,18.5 µM (inactive),19.9 µM (inactive),14.6 µM (inactive),17.3 µM (inactive),21.3 µM (inactive),26 µM (inactive),18.5 µM (inactive),17.4 µM (inactive),21.8 µM (inactive)
c1ccc([B-]23Oc4ccccc4[NH+]2c2ccccc2O3)cc1 (stereo not given),–,–,24.9 µM (inactive),–,–,> 100 µM (inactive),77.4 µM (inactive),54.6 µM (inactive),46 µM (inactive)
CC1(C)O[C@H]2[C@H](O)C[C@](O)(CO)C[C@H]2O1,> 100 µM (inactive),–,> 100 µM (inactive),> 100 µM (inactive),> 100 µM (inactive),–,> 100 µM (inactive),> 100 µM (inactive),> 100 µM (inactive)
O=C1[C@@H](c2ccc(Cl)cc2)[C@H]2CC=C[C@H]2N1O,–,> 100 µM (inactive),41.5 µM (inactive),39.7 µM (inactive),> 100 µM (inactive),–,> 100 µM (inactive),> 100 µM (inactive),> 100 µM (inactive)
CC(C)CC(=O)N1CCN(C(=O)CC(C)C)c2ccccc21,> 100 µM (inactive),> 100 µM (inactive),> 100 µM (inactive),> 100 µM (inactive),> 100 µM (inactive),10.1 µM (inactive),91.6 µM (inactive),> 100 µM (inactive),> 100 µM (inactive)
ON=C1CCC(c2ccccc2)CC1 (stereo not given),> 100 µM (inactive),> 100 µM (inactive),> 100 µM (inactive),–,> 100 µM (inactive),> 100 µM (inactive),> 100 µM (inactive),> 100 µM (inactive),> 100 µM (inactive)
COc1cc(C2c3cc4c(cc3[C@@H](Nc3ccc(N)cc3)C3COC(=O)[C@H]23)OCO4)cc(OC)c1O (stereo not given in full),1.94 µM (inactive),1.45 µM (inactive),1.59 µM (inactive),–,2.91 µM (inactive),9.89 µM (inactive),9.16 µM (inactive),0.361 µM (active),4.57 µM (inactive)
C=CCOCCCCC(C(C)=O)C(=O)OC (stereo not given),> 100 µM (inactive),> 100 µM (inactive),–,–,> 100 µM (inactive),> 100 µM (inactive),> 100 µM (inactive),–,> 100 µM (inactive)
CC(=O)OC1CC[C@@]2(C)C(CC[C@]3(C)C2CC=C2[C@@H]4CC(C)(C)CCC4(C)CCC23C)[C@@]1(C)C(=O)O (stereo not given in full),13.9 µM (inactive),20.5 µM (inactive),16.4 µM (inactive),12.9 µM (inactive),22.2 µM (inactive),21.9 µM (inactive),20.5 µM (inactive),16.4 µM (inactive),10.1 µM (inactive)
CC1=C2C(c3ccccc3)(c3ccccc3)C3C=CC2(C=N3)N(C(=O)NC2CCCCC2)C1=O (stereo not given),16.8 µM (inactive),–,17.9 µM (inactive),12.7 µM (inactive),–,18.7 µM (inactive),16.3 µM (inactive),17.9 µM (inactive),–
C(=C\c1ccc2ccccc2c1Nc1ccccc1)/c1ccccc1,45.1 µM (inactive),18.4 µM (inactive),38.8 µM (inactive),–,> 92.7 µM (inactive),26.4 µM (inactive),38.6 µM (inactive),32.7 µM (inactive),17.3 µM (inactive)
O=[N+]([O-])c1c(/C=N/c2ccccc2)oc(-c2ccc3c(c2)OCO3)c1-c1ccc2c(c1)OCO2,> 100 µM (inactive),> 100 µM (inactive),60.7 µM (inactive),> 100 µM (inactive),> 100 µM (inactive),–,> 100 µM (inactive),> 100 µM (inactive),> 100 µM (inactive)
CC(C)C(=O)Nc1nc2[nH]cnc2c(=O)[nH]1,> 100 µM (inactive),> 100 µM (inactive),> 100 µM (inactive),> 100 µM (inactive),> 100 µM (inactive),> 100 µM (inactive),> 100 µM (inactive),> 100 µM (inactive),> 100 µM (inactive)
